Legend:
NRS 384 Staphylococci [1] = test: Intracellular pH measurement (BCECF-AM); type: cell-based, Staphylococcus aureus; conditions: ALAFAC 100 μg/mL (6 μM), RuR 30 μM, Amiloride 1 mM
Excerpt: Intracellular pH measurement. A reported protocol for intracellular pH (pHi) measurement was modified and optimized for S. aureus by testing the effect of various dye concentrations and staining times on the measured fluorescence of S. aureus isolate NRS 384 grown to mid-log phase. Cell samples were subjected to increasing concentrations of the membrane-permeant acetoxymehtyl (AM) ester derivative of the dual-excitation ratiometric pH indicator dye BCECF (2′,7′-bis-(2-carboxyethyl)-5-(and-6)-carboxyfluorescein), for 30 minutes at 30° C. Fluorescence was measured as a ratio of fluorescence at 530 nm with dual wavelength excitation at 490 and 440 nm and calibration curves were established for each independent experiment. After testing a number of loading concentrations we observed that the fluorescence ratios remains generally constant when concentrations above 20 μM was used. Therefore 25 μM BCECF-AM was used for all experiments. The optimized staining time, 30 minutes, was determined using the same criteria and was used for all experiments. After loading, the cells were washed twice in PBS by centrifugation and the resulting pellet was resuspended in PBS to the original volume and ALAFAC and ALAFAC/antibiotic combinations were added. CCCP was added as a positive control. CCCP is a lipophilic weak acid that is soluble in the lipid domain of the membrane in both the protonated and deprotonated form. This allows it to act as a protonophore causing an influx of H^+ into the cytoplasm, dissipating both the electrical potential and the H^+ gradient across the inner membrane. For each experiment calibration was performed where cells were resuspended in high [K^+] buffers at different pH values ranging from 6.5 to 8.0.

Staphylococcus aureus = test: MIC by broth microdilution, antibiotics with and without ALAFAC; type: cell-based; conditions: NRS 123; methicillin + ALAFAC; Ruthenium Red 30 μM, Amiloride 1 mM
Description: Methodology: Minimal inhibitory concentrations (MICs) were determined in 96-well microtiter plates using the microdilution method according to approved standards of the CLSI except that Todd-Hewitt medium supplemented with 0.5% yeast extract, which yields reproducible MIC results was used as the test medium for S. pneumoniae. For the remaining species Mueller-Hinton medium was used as indicated by the CLSI standard. Each well contained two-fold dilutions of antibiotic, was seeded with a final bacterial concentration of 10^5 CFU/mL, and was incubated for 18 h at 37° C. in a Synergy II microplate reader (Biotek, Winooski, Vt.) where the OD600 was recorded every 5 minutes to monitor bacterial growth. The MIC was defined as the lowest concentration of antimicrobial agent solution at which no increase in OD600 was detected.
In vitro susceptibility tests. Minimal inhibitory concentrations (MICs) were determined in 96-well microtiter plates using the microdilution method according to approved standards of the CLSI as described previously. However, rather than Mueller-Hinton broth, Tryptic soy broth (TSB) was used for susceptibility testing as it is the common media used for Staphylococcal growth, and as it has shown more consistent results for a variety of antimicrobials when tested against Staphylococci. […] A two-fold dilution series of antibiotics in triplicate and in the presence or absence of ALAFAC was prepared in 96 well microtiter plates, and each well was seeded with a final bacterial concentration of 10^5 CFU/mL, and was incubated for 24 h at 37° C. in a Synergy 2 microplate reader (Biotek, Winooski, Vt.) where the Optical Density at 600 nm (OD600) was recorded every 5 minutes to monitor bacterial growth. The MIC was defined as the lowest concentration of antimicrobial agent solution where no increase in OD600 was detected.

NRS 123 Staphylococci = test: Membrane potential, DiBAC4(3) fluorescence; type: cell-based, Staphylococcus aureus; conditions: Ruthenium Red, Amiloride
Description: Assessing membrane potential. Staphylococci grown to late log phase in TSB were pelleted by centrifugation at 2,400×g for 10 minutes and washed twice by resuspension in PBS. The bacterial pellet was resuspended in PBS to half of the original volume and energized with 50 mM glucose for 15 minutes at 37° C. To measure membrane potential of the staphylococcal membrane, 500 nM DiBAC4(3) (bis-(1,3-dibutylbarbituric acid) trimethine oxonol; Molecular Probes, Eugene, Oreg., USA) were added. […] The plate was then placed immediately into a pre-warmed (37° C.) Synergy 2 Multi-Mode Microplate Reader (BioTek) where fluorescence readings from DiBAC4(3) (485/20 nm excitation, 528/20 nm emission) were taken every minute for one hour. The difference in fluorescence intensity between the untreated control and the ALAFAC-treated sample was calculated for the “no inhibitor” samples and for the “inhibitor” samples using the values after 60 minutes. The fluorescence intensity difference for the “inhibitor” samples was then expressed as fold change of the intensity compared with the ALAFAC alone (“no inhibitor”) sample, providing the degree of depolarization compared to the “ALAFAC alone” sample.

Streptococcus pneumoniae = test: Short-time kill assay on planktonic cultures; type: cell-based; conditions: D39, 1 hour, staurosporine 20 μM; for Effect of inhibitor on ALAFAC potentiation of gentamicin and penicillin G: Ruthenium Red 30 μM
Description: Methodology: In late logarithmic growth phase, the bacteria were harvested by centrifugation at 12,000×g for 10 minutes and resuspended in phosphate-buffered saline (PBS; […], […], […], pH 7.4). Appropriate dilutions of the bacteria were suspended in PBS and treated with indicated concentrations of ALAFAC and/or antibiotics for various times. The effect on bacterial viability was assessed by plating serial dilutions of bacterial sample on tryptic soy agar plates containing 5% sheep blood (viable counts) and determining viable colony forming units after overnight growth at 37° C.
Short-time kill assays. In late logarithmic growth phase, the bacteria were harvested by centrifugation at 12,000×g for 10 minutes and resuspended in phosphate-buffered saline (PBS; 30 mM Na2HPO4, 10 mM KH2PO4, […], pH 7.4). Appropriate concentrations of the bacteria (around 10^8 colony forming units per ml) were suspended in PBS and treated with indicated concentrations of ALAFAC and/or antibiotics for various times. The effect on bacterial viability was assessed by plating serial dilutions of bacterial sample on tryptic soy agar plates containing 5% sheep blood (viable counts) and determining viable CFUs after overnight growth at 37° C.

NRS 384 Staphylococci [2] = test: Radioisotope 45Ca2+ transport assay; type: cell-based, Staphylococcus aureus; conditions: ALAFAC addition, Ruthenium Red 30 μM
Description: Radioisotope ^45Ca^2+ transport assays. Staphylococcus aureus was grown to log phase, washed three times and resuspended in 1×PBS containing 0.5 mM CaCl2 (CaPBS). No glucose was added in order to minimize the interference created by extrusion of Ca^2+ via ATPase pumps. ^45CaCl2 (PerkinElmer; Waltham, Mass., USA) was added to the cells at a final concentration of 2.5 μCi/mL, followed by inhibitor compound, with each addition given two minutes equilibration time. The untreated baseline sample was measured at this point. The sample was then divided, ALAFAC was added to one of the tubes, and ^45Ca^2+ uptake was measured at various intervals. For each sample, 100 μL was dispensed onto Millipore 0.3 μm PHWP filters (EMD Millipore; Billerica, Mass., USA) presoaked in CaPBS, and immediately washed with 9 mL of CaPBS via syringe filtration through Millipore Swinnex® filter holders. Filters were placed in scintillation vials with 5 mL of scintillation fluid, and CPMs were detected on a Wallac 1409 liquid scintillation counter (Wallac Oy, Turku, Finland). The results were expressed as ΔCPM that was calculated for each sample at the indicated time points as the difference between ALAFAC-treated and untreated samples.

| Structure (SMILES) | Transmembrane proton gradient (intracellular pH) (NRS 384 Staphylococci [1]) | Effect of inhibitor on ALAFAC antibiotic potentiation in MIC assay (Staphylococcus aureus) | Effect of inhibitor on ALAFAC-associated membrane depolarization (NRS 123 Staphylococci) | Effect of inhibitor on ALAFAC potentiation of gentamicin and penicillin G (Streptococcus pneumoniae) | Effect of inhibitor on ALAFAC potentiation of gentamicin and penicillin G (Streptococcus pneumoniae; listed as ruthenium red) | Effect of inhibitor on ALAFAC-induced death (Streptococcus pneumoniae; lethal ALAFAC (12×MIC), ruthenium red 30 μM) | Intracellular Ca2+ (45Ca2+ uptake) (NRS 384 Staphylococci [2]) |
| --- | --- | --- | --- | --- | --- | --- | --- |
| N=C(N)NC(=O)c1nc(Cl)c(N)nc1N [Amiloride] | did not fully inhibit | completely abolished | completely abolished | – | – | – | – |
| N.N.N.N.N.N.N.N.N.N.N.N.N.N.[Cl-].[Cl-].[Cl-].[Cl-].[Cl-].[Cl-].[O-2].[O-2].[Ru+3].[Ru+3].[Ru+4] [Ruthenium Red] | did not fully inhibit | completely abolished | completely abolished | completely abolished | significantly blocked | significantly reduced | almost completely blocked |

— patent publication US9526766B2, “Potentiation of antibiotic treatment with a protein-lipid complex” (priority 2012, dated 2016)
